How the values were obtained:
hNK2 receptor = target: T1, hNK2 receptor (Homo sapiens, UniProt P21452); assay: Antagonistic activity determined by intracellular calcium concentration using neurokinin A and hNK2 receptor-expressing CHO cell (FLIPR); assay type: cell-based; conditions: neurokinin A stimulation; for inhibition at 10 µM / inhibition at 1 µM / inhibition at 0.1 µM / inhibition at 0.01 µM: CHO, read-out: Antagonistic activity (inhibitory rate (%))
T1 construct: host or cells: CHO cells
T1 sequence (P21452 1-398): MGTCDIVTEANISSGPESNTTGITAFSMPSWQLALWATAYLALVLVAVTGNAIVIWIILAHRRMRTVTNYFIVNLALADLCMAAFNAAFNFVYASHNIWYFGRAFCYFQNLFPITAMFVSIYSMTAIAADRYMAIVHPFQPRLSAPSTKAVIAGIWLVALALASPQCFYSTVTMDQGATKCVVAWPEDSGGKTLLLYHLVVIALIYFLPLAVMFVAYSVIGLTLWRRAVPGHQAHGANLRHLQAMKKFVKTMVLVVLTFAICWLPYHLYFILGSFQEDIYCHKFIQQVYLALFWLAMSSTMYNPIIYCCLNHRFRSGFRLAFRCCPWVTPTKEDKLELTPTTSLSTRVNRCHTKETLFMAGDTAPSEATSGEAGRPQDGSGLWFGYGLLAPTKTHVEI
Procedure: Evaluation of Antagonistic Activity Determined by Intracellular Calcium Concentration Using Test Compound, Neurokinin A and hNK2 Receptor-Expressing CHO Cell
hNK2 receptor-expressing CHO cells were seeded on a 384 well plate at 7.5×10^3 cells/well and cultured for 24 hr. Then the medium was removed, 1× recording medium (30 μL, Calcium kit II-Fluo 4: DOJINDO LABORATORIES, Japan) containing prepared 2.5 μg/mL Fluo 4, 2.5 mM probenecid and 20 mM HEPES was added, and the cells were cultured in CO2 incubator (37° C., 5% CO2) for 1 hr. A test compound diluted with 1× recording medium containing 0.05% bovine serum albumin and 20 mM HEPES (10 μL, 0.6% dimethyl sulfoxide) was added. Thereafter, 3 nM neurokinin A solution (20 μL) was added, and changes in the intracellular calcium concentration were measured by FLIPR (Molecular Devices Corporation, Japan). The inhibitory rate of the test compound was calculated with a reaction using DMSO alone and free of the compound as […] and a reaction using 1 nM NKA as 0% inhibition.

hNK3 receptor = target: T2, hNK3 receptor (Homo sapiens, UniProt P29371); assay: Radioligand receptor binding inhibitory activity using membrane fraction of hNK3 receptor-expressing CHO cell ([125I]-NKB); conditions: for inhibition at 10 µM / inhibition at 1 µM: read-out: hNK3 receptor binding inhibitory activity (inhibitory rate (%))
T2 construct: expressed in transfected cells; host or cells: CHO cells
T2 sequence (P29371 1-465): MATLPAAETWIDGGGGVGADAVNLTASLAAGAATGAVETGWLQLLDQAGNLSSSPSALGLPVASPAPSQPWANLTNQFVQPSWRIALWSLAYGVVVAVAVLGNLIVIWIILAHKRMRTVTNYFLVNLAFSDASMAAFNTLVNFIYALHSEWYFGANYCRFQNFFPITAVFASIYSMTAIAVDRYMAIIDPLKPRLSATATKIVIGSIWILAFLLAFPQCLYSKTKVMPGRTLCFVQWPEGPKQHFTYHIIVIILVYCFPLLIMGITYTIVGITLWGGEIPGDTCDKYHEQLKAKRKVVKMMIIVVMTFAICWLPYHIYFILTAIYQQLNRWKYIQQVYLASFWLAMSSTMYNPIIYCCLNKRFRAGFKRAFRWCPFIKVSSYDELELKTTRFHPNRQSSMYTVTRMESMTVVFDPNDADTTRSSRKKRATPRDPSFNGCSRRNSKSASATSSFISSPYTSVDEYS
Procedure: Radioligand Receptor Binding Inhibitory Activity Using Membrane Fraction of hNK3 Receptor-Expressing CHO Cell
hNK3 receptor-expressing CHO cells were cultured in a HAM-F12 medium containing 500 μg/mL Geneticin, 100 U/mL penicillin, 100 μg/mL streptomycin and 10% inactivated serum. The medium was removed before reaching confluence, and the cells were washed with PBS. PBS containing 0.5 mM EDTA was added to detach the cells from the flask and a cell suspension was recovered. The cells were recovered by low speed centrifugation. The cells were suspended in suspending buffer A (50 mM Tris-HCl (pH 7.4), 120 mM NaCl, 5 mM KCl, bacitracin (40 μg/mL), chymostatin (2 μg/mL), PMSF (0.5 mM), 1 mM EDTA), disrupted by a POLYTRON homogenizer (manufactured by KINEMATICA) and centrifuged at 2000×g for 10 min at 4° C. The supernatant was recovered, and ultracentrifuged at 40000×g for 60 min at 4° C. The precipitated fraction was suspended in suspending buffer B (50 mM Tris-HCl (pH 7.4), 3 mM MnCl2, 0.02% BSA, bacitracin (40 μg/mL), chymostatin (2 μg/mL), PMSF (0.5 mM)). The protein concentration of the suspension was measured using Bio-Rad Protein Assay kit and bovine serum albumin (protein preparation), and cryopreserved (at −80° C.) as a membrane fraction preparation of hNK3 receptor-expressing CHO cell until use for a binding assay.
The radioligand receptor binding assay was performed in a 96 well microassay plate format with a final volume of 200 μL. To the 96 well microassay plate were added 50 μL of assay buffer (50 mM Tris-HCl (pH 7.4), 0.02% bovine serum albumin, 2 μg/mL chymostatin, 40 μg/mL bacitracin, 40 μg/mL APMSF, 3 mM MnCl2), the aforementioned cryopreserved membrane fraction preparation suspended in assay buffer (50 μL (300 μg/mL)) and a test compound diluted with 50 μL of assay buffer (containing 2% dimethyl sulfoxide). The reaction was started by the addition of 50 μL of 400 pM [^125I]-NKB NKB (PerkinElmer Life Sciences) solution. For the measurement of the total binding, assay buffer (50 μL) containing 2% dimethyl sulfoxide was added instead of a diluted test compound solution, and for the measurement of non-specific binding, 50 μL of 4 μM unlabeled NKB (manufactured by Peptide Institute, Inc.) solution (diluted with assay buffer containing 2% dimethyl sulfoxide) was added.
After reaction at room temperature for 30 min, using a cell harvester (manufactured by PerkinElmer), the reaction was stopped by rapid filtration on a unifilter plate (GF/C) (manufactured by PerkinElmer), which had been immersed in 0.3% polyethyleneimine for one day, and the membrane fraction was washed 10 times with 50 mM Tris-HCl (pH 7.4) buffer containing 0.02% bovine serum albumin (250 μL). The GF/C filter plate was dried and 20 μL of MicroScinti-O (manufactured by PerkinElmer) was added to each well and the radioactivity was measured by TopCount (manufactured by PerkinElmer).
Specific binding is shown by the value obtained by subtracting non-specific binding from the total binding. The binding inhibitory activity of the test compound is shown by the ratio of the value obtained by subtracting the measured value associated with the addition of the test compound from the total binding, to the value of the specific binding.

For `Cc1ccn(-c2ccc(C(=O)N[C@@H]3CCC(F)(F)C[C@@H]3C(=O)N3CCc4c(-c5ncc[nH]5)nc5ccccc5c43)cc2)n1` [Example 1, N-[(1R,2S)-4,4-difluoro-2-{[4-(1H-imidazol-2-yl)-2,3-dihydro-1H-pyrrolo[3,2-c]quinolin-1-yl]carbonyl}cyclohexyl]-4-(3-methyl-1H-pyrazol-1-yl)benzamide], the inhibition at 10 µM (hNK2 receptor; test compound 10^−5 M) was 88.3%, the inhibition at 1 µM (hNK2 receptor; test compound 10^−6 M) was 102% and the inhibition at 0.1 µM (hNK2 receptor; test compound 10^−7 M) was 102%. For the same molecule, the inhibition at 0.01 µM (hNK2 receptor; test compound 10^−8 M) was 100%, the inhibition at 10 µM (hNK3 receptor; test compound 10^−5 M) was 28.4% and the “hNK3 receptor binding inhibitory activity (inhibitory rate (%))” value (hNK3 receptor; test compound 10^−6 M) was 9.0%.
In the case of `Br.Cc1ccn(-c2ccc(C(=O)N[C@@H]3CCC(F)(F)C[C@@H]3C(=O)N3CCc4c(-c5ncc[nH]5)nc5ccccc5c43)cc2)n1` [Example 2, N-[(1R,2S)-4,4-difluoro-2-{[4-(1H-imidazol-2-yl)-2,3-dihydro-1H-pyrrolo[3,2-c]quinolin-1-yl]carbonyl}cyclohexyl]-4-(3-methyl-1H-pyrazol-1-yl)benzamide hydrobromide], the “Antagonistic activity (inhibitory rate (%))” value (hNK2 receptor; test compound 10^−5 M) is reported as 88.8%, the “Antagonistic activity (inhibitory rate (%))” value (hNK2 receptor; test compound 10^−6 M) is reported as 102.2% and the “Antagonistic activity (inhibitory rate (%))” value (hNK2 receptor; test compound 10^−7 M) is reported as 102.8%. The “Antagonistic activity (inhibitory rate (%))” value (hNK2 receptor; test compound 10^−8 M) was 100.4%, the “hNK3 receptor binding inhibitory activity (inhibitory rate (%))” value (hNK3 receptor; test compound 10^−5 M) was 32.7% and the “hNK3 receptor binding inhibitory activity (inhibitory rate (%))” value (hNK3 receptor; test compound 10^−6 M) was 4.1%.
`Cc1ccn(-c2ccc(C(=O)N[C@@H]3CCC(F)(F)C[C@@H]3C(=O)N3CCc4c(-c5ncc[nH]5)nc5ccccc5c43)cc2)n1.Cl` [Example 3, N-[(1R,2S)-4,4-difluoro-2-{(4-(1H-imidazol-2-yl)-2,3-dihydro-1H-pyrrolo[3,2-c]quinolin-1-yl]carbonyl}cyclohexyl]-4-(3-methyl-1H-pyrazol-1-yl)benzamide hydrochloride] was tested, and the “Antagonistic activity (inhibitory rate (%))” value (hNK2 receptor; test compound 10^−5 M) was 86.8%, the “Antagonistic activity (inhibitory rate (%))” value (hNK2 receptor; test compound 10^−6 M) was 102.5% and the “Antagonistic activity (inhibitory rate (%))” value (hNK2 receptor; test compound 10^−7 M) was 102.9%. The “Antagonistic activity (inhibitory rate (%))” value (hNK2 receptor; test compound 10^−8 M) was 100.5%, the “hNK3 receptor binding inhibitory activity (inhibitory rate (%))” value (hNK3 receptor; test compound 10^−5 M) was 30.4% and the “hNK3 receptor binding inhibitory activity (inhibitory rate (%))” value (hNK3 receptor; test compound 10^−6 M) was 9.4%.
For `Cc1ccn(-c2ccc(C(=O)N[C@@H]3CCC(F)(F)C[C@@H]3C(=O)N3CCc4c(-c5nccn5COC(=O)C(C)(C)C)nc5ccccc5c43)cc2)n1` [Example 4, [2-(1-{[(1S,2R)-5,5-difluoro-2-({[4-(3-methyl-1H-pyrazol-1-yl)phenyl]carbonyl}amino)cyclohexyl]carbonyl)-2,3-dihydro-1H-pyrrolo[3,2-c]quinolin-4-yl)-1H-imidazol-1-yl]methyl 2,2-dimethylpropanoate], the inhibition at 10 µM (hNK2 receptor; test compound 10^−5 M) was 91%, the inhibition at 1 µM (hNK2 receptor; test compound 10^−6 M) was 98.7% and the inhibition at 0.1 µM (hNK2 receptor; test compound 10^−7 M) was 39.5%. For the same molecule, the inhibition at 0.01 µM (hNK2 receptor; test compound 10^−8 M) was -6.8%, the inhibition at 10 µM (hNK3 receptor; test compound 10^−5 M) was -7.9% and the inhibition at 1 µM (hNK3 receptor; test compound 10^−6 M) was -6.1%.
In the case of `Cc1ccn(-c2ccc(C(=O)N[C@@H]3CCC(F)(F)C[C@@H]3C(=O)N3CCc4c(-c5ncc[nH]5)nc5ccc(F)cc5c43)cc2)n1` [Example 5, N-[(1R,2S)-4,4-difluoro-2-{[8-fluoro-4-(1H-imidazol-2-yl)-2,3-dihydro-1H-pyrrolo[3,2-c]quinolin-1-yl]carbonyl}cyclohexyl]-4-(3-methyl-1H-pyrazol-1-yl)benzamide], the inhibition at 10 µM (hNK2 receptor; test compound 10^−5 M) is reported as 87.1%, the inhibition at 1 µM (hNK2 receptor; test compound 10^−6 M) is reported as 100% and the inhibition at 0.1 µM (hNK2 receptor; test compound 10^−7 M) is reported as 102%. The inhibition at 0.01 µM (hNK2 receptor; test compound 10^−8 M) was 100%, the inhibition at 10 µM (hNK3 receptor; test compound 10^−5 M) was 15.2% and the inhibition at 1 µM (hNK3 receptor; test compound 10^−6 M) was -8.1%.
`Cc1ccn(-c2ccc(C(=O)N[C@@H]3CCC(F)(F)C[C@@H]3C(=O)N3CCc4c(-c5ccsc5)nc5ccccc5c43)cc2)n1` [Example 7, N-[(1R,2S)-4,4-difluoro-2-{(4-thiophen-3-yl-2,3-dihydro-1H-pyrrolo[3,2-c]quinolin-1-yl)carbonyl]cyclohexyl}-4-(3-methyl-1H-pyrazol-1-yl)benzamide] gave an inhibition at 10 µM (hNK2 receptor; test compound 10^−5 M) of 83.7%, an inhibition at 1 µM (hNK2 receptor; test compound 10^−6 M) of 99.3% and an inhibition at 0.1 µM (hNK2 receptor; test compound 10^−7 M) of 100%. It also gave an inhibition at 0.01 µM (hNK2 receptor; test compound 10^−8 M) of 98.6%, an inhibition at 10 µM (hNK3 receptor; test compound 10^−5 M) of 35.6% and an inhibition at 1 µM (hNK3 receptor; test compound 10^−6 M) of 5.9%.
Work on `Cc1ccn(-c2ccc(C(=O)N[C@@H]3CCC(F)(F)C[C@@H]3C(=O)N3CCc4c(-c5ccccc5)nc5ccc(F)cc5c43)cc2)n1` [Example 9, N-{(1R,2S)-4,4-difluoro-2-[(8-fluoro-4-phenyl-2,3-dihydro-1H-pyrrolo[3,2-c]quinolin-1-yl)carbonyl]cyclohexyl}-4-(3-methyl-1H-pyrazol-1-yl)benzamide] yielded an inhibition at 10 µM (hNK2 receptor; test compound 10^−5 M) of 84.1%, an inhibition at 1 µM (hNK2 receptor; test compound 10^−6 M) of 96.7% and an inhibition at 0.1 µM (hNK2 receptor; test compound 10^−7 M) of 100%. The inhibition at 0.01 µM (hNK2 receptor; test compound 10^−8 M) was 81.9%, the inhibition at 10 µM (hNK3 receptor; test compound 10^−5 M) was 53.1% and the inhibition at 1 µM (hNK3 receptor; test compound 10^−6 M) was 27.7%.
